{"source": "ChEMBL document CHEMBL5356971", "about": "“Optimization of the Antibacterial Spectrum and the Developability Profile of the Novel-Class Natural Product Corramycin” (J Med Chem, 2023)", "key": {"[1]": {"experiment": "Metabolic stability in mouse kidney assessed as parent compound remaining measured after 4 hrs by UPLC-MS analysis", "type": "ADME, tissue-based", "conditions": "read-out: Stability"}, "[2]": {"experiment": "Metabolic stability in mouse lung assessed as parent compound remaining measured after 4 hrs by UPLC-MS analysis", "type": "ADME, tissue-based", "conditions": "for remaining at 4 h: mouse lung, read-out: Stability"}, "[3]": {"experiment": "Metabolic stability in mouse lung assessed as parent compound remaining measured after 1 hrs by UPLC-MS analysis", "type": "ADME, tissue-based", "conditions": "for remaining at 1 h: mouse lung, read-out: Stability"}, "[4]": {"experiment": "Metabolic stability in mouse kidney assessed as parent compound remaining measured after 1 hrs by UPLC-MS analysis", "type": "ADME, tissue-based", "conditions": "read-out: Stability"}, "Escherichia coli [5]": {"tested_on": "Escherichia coli", "experiment": "Antibacterial activity against wild type Escherichia coli ATCC 35218 assessed as reduction in microbial growth incubated for 20 to 22 hrs by CLSI based analysis", "type": "functional", "conditions": "time 20-22 hrs"}, "Escherichia coli [6]": {"tested_on": "Escherichia coli", "experiment": "Antibacterial activity against Escherichia coli ATCC 35218 harboring SbmA assessed as reduction in microbial growth incubated for 20 to 22 hrs by CLSI based analysis", "type": "functional", "conditions": "time 20-22 hrs"}, "Klebsiella pneumoniae [7]": {"tested_on": "Klebsiella pneumoniae", "experiment": "Antibacterial activity against wild type Klebsiella pneumoniae ATCC 13883 assessed as reduction in microbial growth incubated for 20 to 22 hrs by CLSI based analysis", "type": "functional", "conditions": "time 20-22 hrs"}, "Klebsiella pneumoniae [8]": {"tested_on": "Klebsiella pneumoniae", "experiment": "Antibacterial activity against Klebsiella pneumoniae ATCC 13883 harboring SbmA assessed as reduction in microbial growth incubated for 20 to 22 hrs by CLSI based analysis", "type": "functional", "conditions": "time 20-22 hrs"}, "Acinetobacter baumannii [9]": {"tested_on": "Acinetobacter baumannii", "experiment": "Antibacterial activity against wild type Acinetobacter baumannii ATCC 19606 assessed as reduction in microbial growth incubated for 20 to 22 hrs by CLSI based analysis", "type": "functional", "conditions": "time 20-22 hrs"}, "Escherichia coli [10]": {"tested_on": "Escherichia coli", "experiment": "Antibacterial activity against Escherichia coli ATCC 25922 infected in Swiss albino mouse thigh infection model at 10 mg/kg, iv measured after 1 hr", "type": "functional, organism-based"}, "Klebsiella pneumoniae [11]": {"tested_on": "Klebsiella pneumoniae", "experiment": "Antibacterial activity against Klebsiella pneumoniae ATCC 13883 infected in Swiss albino mouse thigh infection model at 10 mg/kg, iv measured after 1 hr", "type": "functional, organism-based"}, "Klebsiella pneumoniae [12]": {"tested_on": "Klebsiella pneumoniae", "experiment": "Antibacterial activity against Klebsiella pneumoniae ATCC 13883 infected in Swiss albino mouse model of neutropenic lung infection at 10 mg/kg, iv pretreated for 1 hr followed by bacterial infection and measured after 5 hr post infection", "type": "functional, organism-based", "conditions": "time 6.0 hrs"}, "Escherichia coli [13]": {"tested_on": "Escherichia coli", "experiment": "Antibacterial activity against Escherichia coli ATCC 35218 assessed as reduction in microbial growth incubated for 20 to 22 hrs by CLSI based analysis", "type": "functional", "conditions": "time 20-22 hrs"}, "Klebsiella pneumoniae [14]": {"tested_on": "Klebsiella pneumoniae", "experiment": "Antibacterial activity against Klebsiella pneumoniae ATCC 13883 assessed as reduction in microbial growth incubated for 20 to 22 hrs by CLSI based analysis", "type": "functional", "conditions": "time 20-22 hrs"}, "Acinetobacter baumannii [15]": {"tested_on": "Acinetobacter baumannii", "experiment": "Antibacterial activity against Acinetobacter baumannii ATCC 19606 assessed as reduction in microbial growth incubated for 20 to 22 hrs by CLSI based analysis", "type": "functional", "conditions": "time 20-22 hrs"}, "Escherichia coli [16]": {"tested_on": "Escherichia coli", "experiment": "Antibacterial activity against Escherichia coli ATCC 35218 infected in Swiss albino mouse model of Septicaemia infection assessed as log reduction in Septicaemia in blood at 1 mg/kg , iv preincubated for 4 hrs followed by bacterial infection and measured after 4 hrs post infection", "type": "functional", "conditions": "time 8 hrs"}, "Escherichia coli [17]": {"tested_on": "Escherichia coli", "experiment": "Antibacterial activity against Escherichia coli ATCC 35218 infected in Swiss albino mouse model of Septicaemia infection assessed as log reduction in Septicaemia in blood at 20 mg/kg , iv preincubated for 4 hrs followed by bacterial infection and measured after 4 hrs post infection", "type": "functional", "conditions": "time 8 hrs"}}, "note": "Activity calls are given as the source filed them. No cut-off for these calls is given here."}
{"compound": "CO[C@@H](CNC(=O)[C@H](NC(=O)[C@H](O)[C@H](C)O)[C@H](O)c1cncn1C)[C@H](O)[C@H](O)C(=O)N(C)[C@@H](Cc1ccc(F)cc1)C(=O)NCC(=O)N[C@H](C(=O)N[C@@H](CO)C(=O)N[C@H](C(=O)N[C@H](C(=O)N[C@@H](CO)C(=O)N[C@@H](CN)C(=O)NCc1cc(=O)c(O)cn1O)C(C)(C)C)C(C)(C)O)C(C)(C)O", "values": [{"measurement": "remaining at 4 h", "setting": "[1]", "value": 95, "unit": "%"}, {"measurement": "remaining at 4 h", "setting": "[2]", "value": 107, "unit": "%"}, {"measurement": "remaining at 1 h", "setting": "[3]", "value": 96, "unit": "%"}, {"measurement": "remaining at 1 h", "setting": "[4]", "value": 97, "unit": "%"}, {"measurement": "MIC", "setting": "Escherichia coli [5]", "value": 0.01, "unit": "µg/mL"}, {"measurement": "MIC", "setting": "Escherichia coli [6]", "value": 4, "unit": "µg/mL"}, {"measurement": "MIC", "setting": "Klebsiella pneumoniae [7]", "value": 0.12, "unit": "µg/mL"}, {"measurement": "MIC", "setting": "Klebsiella pneumoniae [8]", "value": "> 32", "unit": "µg/mL"}, {"measurement": "MIC", "setting": "Acinetobacter baumannii [9]", "value": 0.5, "unit": "µg/mL"}, {"measurement": "Activity", "setting": "Escherichia coli [10]", "value": "Active"}, {"measurement": "Activity", "setting": "Klebsiella pneumoniae [11]", "value": "Active"}, {"measurement": "Activity", "setting": "Klebsiella pneumoniae [12]", "value": "Active"}]}
{"compound": "CO[C@@H](CNC(=O)[C@H](NC(=O)[C@H](O)[C@H](C)O)[C@H](O)c1cncn1C)[C@H](O)[C@H](O)C(=O)N(C)[C@@H](Cc1ccc(F)cc1)C(=O)NCC(=O)N[C@H](C(=O)N[C@@H](CO)C(=O)N[C@H](C(=O)N[C@H](C(=O)N[C@@H](CO)C(=O)NCCN)C(C)(C)C)C(C)(C)O)C(C)(C)O", "values": [{"measurement": "remaining at 4 h", "setting": "[1]", "value": 92, "unit": "%"}, {"measurement": "Stability", "setting": "[2]; 4 h", "value": 138, "unit": "%"}, {"measurement": "Stability", "setting": "[3]; 1 h", "value": 127, "unit": "%"}, {"measurement": "remaining at 1 h", "setting": "[4]", "value": 105, "unit": "%"}, {"measurement": "MIC", "setting": "Escherichia coli [13]", "value": 0.125, "unit": "µg/mL"}, {"measurement": "MIC", "setting": "Klebsiella pneumoniae [14]", "value": 0.25, "unit": "µg/mL"}, {"measurement": "MIC", "setting": "Acinetobacter baumannii [15]", "value": "> 8", "unit": "µg/mL"}, {"measurement": "Activity", "setting": "Escherichia coli [16]", "value": -5.6, "unit": "log10CFU"}]}
{"compound": "CO[C@@H](CNC(=O)[C@H](NC(=O)[C@H](O)[C@H](C)O)[C@H](O)c1cncn1C)[C@H](O)[C@H](O)C(=O)N(C)[C@@H](Cc1ccc(F)cc1)C(=O)NCC(=O)N[C@H](C(=O)N[C@@H](CO)C(=O)N[C@H](C(=O)N[C@H](C(=O)N[C@@H](CO)C(=O)O)C(C)(C)C)C(C)(C)O)C(C)(C)O", "values": [{"measurement": "remaining at 4 h", "setting": "[1]", "value": 109, "unit": "%"}, {"measurement": "remaining at 4 h", "setting": "[2]", "value": 84, "unit": "%"}, {"measurement": "remaining at 1 h", "setting": "[3]", "value": 89, "unit": "%"}, {"measurement": "remaining at 1 h", "setting": "[4]", "value": 109, "unit": "%"}, {"measurement": "MIC", "setting": "Escherichia coli [13]", "value": 0.5, "unit": "µg/mL"}, {"measurement": "MIC", "setting": "Klebsiella pneumoniae [14]", "value": 0.5, "unit": "µg/mL"}, {"measurement": "MIC", "setting": "Acinetobacter baumannii [15]", "value": "> 32", "unit": "µg/mL"}]}
{"compound": "CO[C@@H](CNC(=O)[C@H](NC(=O)[C@H](O)[C@H](C)O)[C@H](O)c1cncn1C)[C@H](O)[C@H](O)C(=O)N(C)[C@@H](Cc1ccccc1)C(=O)NCC(=O)N[C@H](C(=O)N[C@@H](CO)C(=O)N[C@H](C(=O)N[C@@H](CC(C)C)C(=O)N[C@@H](CO)C(=O)NCCN)C(C)(C)O)C(C)(C)O", "values": [{"measurement": "MIC", "setting": "Escherichia coli [13]", "value": 2, "unit": "µg/mL"}, {"measurement": "MIC", "setting": "Klebsiella pneumoniae [14]", "value": 8, "unit": "µg/mL"}, {"measurement": "MIC", "setting": "Acinetobacter baumannii [15]", "value": "> 32", "unit": "µg/mL"}, {"measurement": "Activity", "setting": "Escherichia coli [17]", "value": -4.1, "unit": "log10CFU"}]}
{"compound": "CO[C@@H](CNC(=O)[C@H](NC(=O)[C@H](O)[C@H](C)O)[C@H](O)c1cncn1C)[C@H](O)[C@H](O)C(=O)N(C)[C@@H](Cc1ccccc1)C(=O)NCC(=O)N[C@H](C(=O)N[C@@H](CO)C(=O)N[C@H](C(=O)N[C@@H](CC(C)C)C(=O)N[C@@H](C)C(=O)O)C(C)(C)O)C(C)(C)O", "values": [{"measurement": "MIC", "setting": "Escherichia coli [13]", "value": 4, "unit": "µg/mL"}, {"measurement": "MIC", "setting": "Klebsiella pneumoniae [14]", "value": 16, "unit": "µg/mL"}, {"measurement": "MIC", "setting": "Acinetobacter baumannii [15]", "value": "> 32", "unit": "µg/mL"}]}
{"compound": "CO[C@@H](CNC(=O)[C@H](NC(=O)[C@H](O)[C@H](C)O)[C@H](O)c1cncn1C)[C@H](O)[C@H](O)C(=O)N(C)[C@@H](Cc1ccccc1)C(=O)NCC(=O)N[C@H](C(=O)N[C@@H](CO)C(=O)N[C@H](C(=O)N[C@@H](C)C(=O)N[C@@H](CO)C(=O)O)C(C)(C)O)C(C)(C)O", "values": [{"measurement": "MIC", "setting": "Escherichia coli [13]", "value": 8, "unit": "µg/mL"}, {"measurement": "MIC", "setting": "Klebsiella pneumoniae [14]", "value": 64, "unit": "µg/mL"}, {"measurement": "MIC", "setting": "Acinetobacter baumannii [15]", "value": "> 32", "unit": "µg/mL"}]}
